Test results taken from patent US6737383B1, “Herbicidal oxadiazolidines” (priority 1999, dated 2004).

Experiments:
bedstraw = test: Test B pre/postemergence bedstraw; assay type: in vivo, Galium aparine
From the text: (§1) Seeds of bedstraw (Galium aparine), blackgrass (Alopecurus myosuroides), surinam grass (Brachiaria decumbens), cocklebur (Xanthium strumarium), corn (Zea mays), crabgrass (Digitaria sanguinalis), giant foxtail (Setaria faberii), morningglory (Ipomoea hederacea), pigweed (Amaranthus retroflexus), rape (Brassica napus), soybean (Glycine max), sugar beet (Beta vulgaris), velvetleaf (Abutilon theophrasti), wheat (Triticum aestivum), wild oat (Avena fatua) and purple nutsedge (Cyperus rotundus) tubers were planted and treated preemnergence with test chemicals formulated in a non-phytotoxic solvent mixture which included a surfactant.
(§2) At the same time, these crop and weed species were also treated with postemergence applications of test chemicals formulated in the same manner. Plants ranged in height from 2 to 18 cm (1- to 4-leaf stage) for postemergence treatments. Plant species in the flood test consisted of rice (Oryza sativa), smallflower flatsedge (Cyperus difformis), duck salad (Heteranthera limosa) and bamyardgrass (Echinochloa crus-galli) grown to the 2-leaf stage for testing. Treated plants and controls were maintained in a greenhouse for twelve to sixteen days, after which all species were compared to controls and visually evaluated. Plant response ratings, summarized in Table B, are based on a scale of 0 to 10 where 0 is no effect and 10 is complete control. A dash (−) response means no test result.

blackgrass = test: Test B pre/postemergence blackgrass; assay type: in vivo, Alopecurus myosuroides
From the text: as §1, §2

surinam grass = test: Test B pre/postemergence surinam grass; assay type: in vivo, Brachiaria decumbens
From the text: as §1, §2

cocklebur = test: Test B pre/postemergence cocklebur; assay type: in vivo, Xanthium strumarium
From the text: as §1, §2

corn = test: Test B pre/postemergence corn; assay type: in vivo, Zea mays
From the text: as §1, §2

crabgrass = test: Test B pre/postemergence crabgrass; assay type: in vivo, Digitaria sanguinalis
From the text: as §1, §2

giant foxtail = test: Test B pre/postemergence giant foxtail; assay type: in vivo, Setaria faberii
From the text: as §1, §2

morningglory = test: Test B pre/postemergence morningglory; assay type: in vivo, Ipomoea hederacea
From the text: as §1, §2

pigweed = test: Test B pre/postemergence pigweed; assay type: in vivo, Amaranthus retroflexus
From the text: as §1, §2

rape = test: Test B pre/postemergence rape; assay type: in vivo, Brassica napus
From the text: as §1, §2

soybean = test: Test B pre/postemergence soybean; assay type: in vivo, Glycine max
From the text: as §1, §2

sugar beet = test: Test B pre/postemergence sugar beet; assay type: in vivo, Beta vulgaris
From the text: as §1, §2

velvetleaf = test: Test B pre/postemergence velvetleaf; assay type: in vivo, Abutilon theophrasti
From the text: as §1, §2

wheat = test: Test B pre/postemergence wheat; assay type: in vivo, Triticum aestivum
From the text: as §1, §2

wild oat = test: Test B pre/postemergence wild oat; assay type: in vivo, Avena fatua
From the text: as §1, §2

purple nutsedge = test: Test B pre/postemergence purple nutsedge; assay type: in vivo, Cyperus rotundus
From the text: as §1, §2

[1] = Preemergence, Rate 62 g/ha, scale of 0 to 10 where 0 is no effect and 10 is complete control
[2] = Preemergence, Rate 500 g/ha, scale of 0 to 10 where 0 is no effect and 10 is complete control
[3] = Rate 62 g/ha, Postemergence, scale of 0 to 10 where 0 is no effect and 10 is complete control
[4] = Rate 125 g/ha, Postemergence, scale 0 to 10
[5] = Rate 125 g/ha, Preemergence, scale of 0 to 10 where 0 is no effect and 10 is complete control
[6] = Preemergence, Rate 250 g/ha, scale of 0 to 10 where 0 is no effect and 10 is complete control
[7] = Rate 500 g/ha, Postemergence, scale 0 to 10, 0 no effect, 10 complete control

CC(C)N(C(=O)n1oc(=O)n(C(C)C(=O)c2ccccc2)c1=O)c1ccc(F)cc1 (stereo not shown) [Compound 260]
Bedstraw plant response rating (bedstraw; [1]): 0 | Plant response rating, Bedstraw (bedstraw; [2]): 5 | Bedstraw plant response rating (bedstraw; [3]): 6 | Bedstraw plant response rating (bedstraw; [4]): 7 | Bedstraw plant response rating (bedstraw; [5]): 0 | Blackgrass plant response rating (blackgrass; [1]): 0 | Blackgrass plant response rating (blackgrass; [6]): 2 | Plant response rating, Blackgrass (blackgrass; [2]): 3 | Blackgrass plant response rating (blackgrass; [3]): 0 | Blackgrass plant response rating (blackgrass; [4]): 0 | Blackgrass plant response rating (blackgrass; [5]): 0 | Plant response rating (0 to 10; 0 is no effect, 10 is complete control), Blackgrass (blackgrass; Rate 250 g/ha, Postemergence): 0 | Blackgrass plant response rating (blackgrass; [7]): 0 | B. signalgrass plant response rating (surinam grass; [1]): 0 | B. signalgrass plant response rating (surinam grass; [6]): 0 | Plant response rating, B. signalgrass (surinam grass; [2]): 3 | B. signalgrass plant response rating (surinam grass; [3]): 0 | B. signalgrass plant response rating (surinam grass; Rate 125 g/ha, Postemergence, scale 0 (no effect) to 10 (complete control)): 0 | B. signalgrass plant response rating (surinam grass; [5]): 0 | Plant response rating (0 to 10; 0 is no effect, 10 is complete control), B. signalgrass (surinam grass; Rate 250 g/ha, Postemergence): 0 | B. signalgrass plant response rating (surinam grass; [7]): 0 | Cocklebur plant response rating (cocklebur; [1]): 0 | Cocklebur plant response rating (cocklebur; [6]): 0 | Plant response rating, Cocklebur (cocklebur; [2]): 0 | Cocklebur plant response rating (cocklebur; [3]): 0 | Cocklebur plant response rating (cocklebur; [4]): 0 | Cocklebur plant response rating (cocklebur; [5]): 0 | Plant response rating (0 to 10; 0 is no effect, 10 is complete control), Cocklebur (cocklebur; Rate 250 g/ha, Postemergence): 0 | Cocklebur plant response rating (cocklebur; [7]): 0 | Corn plant response rating (corn; [1]): 0 | Corn plant response rating (corn; [6]): 0 | Plant response rating, Corn (corn; [2]): 0 | Corn plant response rating (corn; [3]): 0 | Corn plant response rating (corn; [4]): 0 | Corn plant response rating (corn; [5]): 0 | Plant response rating (0 to 10; 0 is no effect, 10 is complete control), Corn (corn; Rate 250 g/ha, Postemergence): 0 | Corn plant response rating (corn; [7]): 0 | Crabgrass plant response rating (crabgrass; [1]): 0 | Crabgrass plant response rating (crabgrass; [6]): 6 | Plant response rating, Crabgrass (crabgrass; [2]): 9 | Crabgrass plant response rating (crabgrass; [5]): 2 | Plant response rating (0 to 10; 0 is no effect, 10 is complete control), Crabgrass (crabgrass; Rate 250 g/ha, Postemergence): 0 | Crabgrass plant response rating (crabgrass; [7]): 0 | Giant foxtail plant response rating (giant foxtail; [1]): 3 | Giant foxtail plant response rating (giant foxtail; [6]): 8 | Plant response rating, Giant foxtail (giant foxtail; [2]): 10 | Giant foxtail plant response rating (giant foxtail; [5]): 7 | Plant response rating (0 to 10; 0 is no effect, 10 is complete control), Giant foxtail (giant foxtail; Rate 250 g/ha, Postemergence): 0 | Giant foxtail plant response rating (giant foxtail; [7]): 0 | Morningglory plant response rating (morningglory; [1]): 0 | Morningglory plant response rating (morningglory; [6]): 0 | Plant response rating, Morningglory (morningglory; [2]): 0 | Morningglory plant response rating (morningglory; [5]): 0 | Plant response rating (0 to 10; 0 is no effect, 10 is complete control), Morningglory (morningglory; Rate 250 g/ha, Postemergence): 3 | Morningglory plant response rating (morningglory; [7]): 4 | Redroot pigweed plant response rating (pigweed; [1]): 0 | Redroot pigweed plant response rating (pigweed; [6]): 4 | Plant response rating, Redroot pigweed (pigweed; [2]): 4 | Redroot pigweed plant response rating (pigweed; [5]): 0 | Plant response rating (0 to 10; 0 is no effect, 10 is complete control), Redroot pigweed (pigweed; Rate 250 g/ha, Postemergence): 3 | Redroot pigweed plant response rating (pigweed; [7]): 6 | Rape plant response rating (rape; [1]): 0 | Rape plant response rating (rape; [6]): 0 | Plant response rating, Rape (rape; [2]): 0 | Rape plant response rating (rape; [5]): 0 | Plant response rating (0 to 10; 0 is no effect, 10 is complete control), Rape (rape; Rate 250 g/ha, Postemergence): 0 | Rape plant response rating (rape; [7]): 0 | Soybean plant response rating (soybean; [1]): 0 | Soybean plant response rating (soybean; [6]): 0 | Plant response rating, Soybean (soybean; [2]): 0 | Soybean plant response rating (soybean; [5]): 0 | Soybean plant response rating (soybean; [7]): 1 | Sugarbeets plant response rating (sugar beet; [1]): 0 | Sugarbeets plant response rating (sugar beet; [6]): 0 | Plant response rating, Sugarbeets (sugar beet; [2]): 0 | Sugarbeets plant response rating (sugar beet; [5]): 0 | Sugarbeets plant response rating (sugar beet; [7]): 3 | Velvetleaf plant response rating (velvetleaf; [1]): 0 | Velvetleaf plant response rating (velvetleaf; [6]): 0 | Plant response rating, Velvetleaf (velvetleaf; [2]): 0 | Velvetleaf plant response rating (velvetleaf; [5]): 0 | Velvetleaf plant response rating (velvetleaf; [7]): 1 | Wheat plant response rating (wheat; [1]): 0 | Wheat plant response rating (wheat; [6]): 0 | Plant response rating, Wheat (wheat; [2]): 0 | Wheat plant response rating (wheat; [5]): 0 | Wheat plant response rating (wheat; [7]): 0 | Wild oats plant response rating (wild oat; [1]): 0 | Wild oats plant response rating (wild oat; [6]): 0 | Plant response rating, Wild oats (wild oat; [2]): 0 | Wild oats plant response rating (wild oat; [5]): 0 | Wild oats plant response rating (wild oat; [7]): 0 | Nutsedge plant response rating (purple nutsedge; [1]): 0 | Nutsedge plant response rating (purple nutsedge; [6]): 0 | Nutsedge plant response rating (purple nutsedge; [5]): 0 | Plant response rating (0 to 10; 0 is no effect, 10 is complete control), Nutsedge (purple nutsedge; Rate 250 g/ha, Postemergence): 0 | Nutsedge plant response rating (purple nutsedge; [7]): 0
